Where two headings read alike, the source gives them in different places. Marks after values point to notes of the source that are not given here.
Tests used:
[1] = test system: Raf-1(truncated); experiment: Raf-1 inhibitor screening by chemoluminescence method; format: biochemical; settings: Final concentration 1 x 1.0*10^−5 mol/ml
Text: 1. Inhibitory activity of the compound of the present invention on raf kinase
Raf-1 inhibitor screening by chemoluminescence method
Westernblot electrophoresis apparatus Rotaryshaker
Raf-1(truncated), Magnesium/ATP Cocktail, MEK1 unactive

[2] = test system: human lung cancer cell strain A549; experiment: MTT assay, inhibition of growth of human lung cancer cell strain A549; format: cell-based
Method in brief: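 A549 cells grown in F12 with 10% FBS; growth read by MTT, inhibition rate from blank-corrected OD of drug wells versus control wells.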

[3] = test system: human high-metastic lung cancer cell 95D; experiment: Inhibition of human high-metastic lung cancer cell 95D migration (Boyden Chamber Transwell); format: cell-based; settings: Final concentration 1 x 1.0*10^(−5) mol/L
Method in brief: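 Boyden Transwell migration (8 μm pores) of 95D cells, RPMI-1640 with 10% FBS versus serum-free medium; inhibition rate calculated.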

[4] = test system: lung cancer cell A549; experiment: Effects on the adhesive ability of lung cancer cell A549; format: cell-based, human; settings: Final concentration 1 x 1.0*10^(−5) mol/L
Method in brief: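 A549 cells in 1640 medium with 10% FBS tested for adhesion to gelatin versus poly-lysine (PLL), with CCK8 used as read-out. Inhibition rate derived from the gelatin/PLL adhesion OD ratio of dosed cells relative to the undosed cell group.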

[5] = test system: human umbilical vein endothelial cell HUVEC; experiment: Growth of human umbilical vein endothelial cell HUVEC by CCK8 method; format: cell-based; settings: Final concentration 1 x 1.0*10^(−5) mol/L
Method in brief: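 HUVEC cells were grown in 1640 medium with 10% FBS, and growth was measured by the CCK8 method. OD values of drug and control wells were corrected by subtracting the blank-well OD.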

[6] = test system: human umbilical vein endothelial cell HUVEC; experiment: Lumen formation ability of HUVEC (Matrigel method); format: cell-based; settings: Final concentration 1 x 1.0*10^(−5) mol/L
Method in brief: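 HUVEC at passage 3–5, cultured in M199 at 37° C under 5% CO2, were plated on Matrigel with compound. Spontaneous lumen formation was scored as an inhibition rate.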

[7] = test system: human lung cancer A549 transplantation tumor; format: in vivo; settings: 60 mg/kg, 6 times every week for 3 weeks; for Relative tumor reproduction rate T/C (%) on human lung cancer A549 transplantation tumor in nude mice: BALB/cA nude mice, Sorafenib oral 60 mg/kg
Method in brief: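 Female BALB/cA nude mice, 35-40 days old, bearing A549 human lung cancer transplants; 6 per treatment group, 12 saline controls. Compound given at 60 mg/kg, 6 times weekly for 3 weeks, then observed one week.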

[8] = test system: human liver cancer cell bel-7402 transplantation tumor; format: in vivo; settings: 60 mg/kg, 6 times every week for 3 weeks; for Relative tumor reproduction rate T/C (%) on human liver cancer cell bel-7402 transplantation tumor model in nude mice: BALB/cA nude mice, Sorafenib oral 60 mg/kg
Method in brief: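 Female BALB/cA nude mice (35–40 days, 18–22 g) bearing Bel-7402 xenografts; 6 mice per treated group, 12 in saline controls. Compound dosed at 60 mg/kg, 6 times weekly for 3 weeks, followed by one week of observation; tumor inhibition rate scored against controls.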

[9] = test system: renal carcinoma cell line GCR-1 transplanted tumor; format: in vivo, BALB/cA nude mice; settings: 60 mg/kg, 6 times every week for 3 weeks; for Relative tumor reproduction rate T/C (%) on human renal carcinoma GCR-1 cell transplanted tumor model in nude mice: BALB/cA nude mice, Sorafenib oral 60 mg/kg
Method in brief: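 Female BALB/cA nude mice (18–22 g) bearing GCR-1 renal carcinoma xenografts, 6 per treated group, 12 saline controls. Drug given at 60 mg/kg, 6 times weekly for 3 weeks, then one week of observation; tumor inhibition rate reported.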

[10] = test system: mice S180 sarcoma; settings: mouse, in vivo, 60 mg/kg
Method: (§1) Experimental therapeutic action of the compound in the present invention on S180 sarcoma mice
(§2) 18-25 g female ICR mice and well grown 7-11 day old mice sarcoma S180 tumor seeds were selected, and the seeds were inoculated into the subcutaneous at the right axillary. After inoculated 24 hours, these mice were randomly divided into cages and orally administrated 60 mg/kg for 9 days. On 10 day, the animals were killed and weighed, and the tumor weights were weighed to calculate average tumor weight in each group, followed by calculating the tumor inhibition rate according to the following formula and T test.

[11] = test system: mice S180 sarcoma; experiment: Experimental therapeutic action on S180 sarcoma mice; settings: for Tumor weight x ± SD: day 10; for Tumor growth inhibition rate (%): mice S180 sarcoma, 60 mg/kg orally for 9 days
Method: as §1, §2

[12] = test system: Human colon cancer HT-29 transplantable tumor; experiment: Human colon cancer HT-29 transplantable tumor in nude mice; settings: for Relative tumor reproduction rate T/C (%): HT-29 in nude mice; for Relative tumor reproduction rate T/C (%) / RTV: 60 mg/kg ig 9 times; for RTV: relative tumor volume; for TV d0: tumor volume d0, 60 mg/kg; for TV d13: tumor volume d13, 60 mg/kg ig 9 times; for Weight (g) d0: nude mouse body weight d0, 60 mg/kg; for Weight (g) d13: nude mouse body weight d13, 60 mg/kg ig 9 times
Method: Experimental therapeutic action of the compound in the present invention on Human colon cancer HT-29 transplantable tumor in nude mice.
Take eugenic tumor tissues and cut into about 1.5 mm^3, and then incoculate subcutaneously at the right armpit of nude mice under the sterile conditions. The diameter of the transplantable tumor in nude mice was determined with a vernier caliper, and the animals were divided into groups after the tumors were grown to 100-300 mm^3. Using the method of measuring the tumor diameter, dynamically observe the antitumor effects of tested materials. The diameter of the tumor was determined three times every week and the mouse weight was weighed at the same time. […] The solvent was intragastrically administrated as the control for continuous 9 times. Equal amount of control was administrated in the negative control group.
Tumor volume (TV) is calculated as: TV=½×a×b^2, wherein a and b respectively represent length and width.
Relative tumor volume (RTV) is calculated as: RTV=TVt/TV0, wherein TV0 is the tumor volume when administrated according to different cages and TVt is the tumor volume measured each time.
Relative tumor reproduction rate T/C (%) is calculated as follows:
TRTV: RTV in the treatment group; CRTV: RTV in the negative control group.
The test results used relative tumor reproduction rate T/C (%) as evaluating indicator of anti-tumor activity.

[13] = Final concentration 1 x 1.0*10^(−5) mol/L

Molecule	Inhibition rate % on raf kinase [1] [%]	Inhibition rate, growth of human lung cancer cell A549 [2, 13] [%]	Inhibition rate, 95D cell strain migration [3] [%]	Inhibition rate, adhesion ability of human lung cancer cell A549 [4] [%]	Inhibition rate, growth of HUVEC cell [5] [%]	Inhibition rate, lumen formation ability of HUVEC [6] [%]	Relative tumor reproduction rate T/C (%) on human lung cancer A549 transplantation tumor in nude mice [7] [%]	Relative tumor reproduction rate T/C (%) on human liver cancer cell bel-7402 transplantation tumor model in nude mice [8] [%]	Relative tumor reproduction rate T/C (%) on human renal carcinoma GCR-1 cell transplanted tumor model in nude mice [9] [%]	Tumor weight x ± SD ([11]; 60 mg/kg ig for 9 days) [g]	Tumor growth inhibition rate (%) [11] [%]	RTV [12]	TV d0 [12]	TV d13 [12]	Inhibition rate, growth of human lung cancer cell A549 [2] [%]	Relative tumor reproduction rate T/C (%) [12] [%]	also measured
CNC(=O)c1cc(Oc2ccc(NC(=O)Nc3ccc(Br)c(C(F)(F)F)c3)cc2)c2cc(OC)ccc2n1 [Compound 3]	56.3	69.67	96.64	79.66	27.67	76.61	37.2	30.1	31.3	0.75 ± 0.36	53.4	2.40 ± 0.67	133 ± 18	322 ± 129			Weight (g) Start [10]: 18.0 ± 1.1 g; Relative tumor reproduction rate T/C (%) ([12]; 60 mg/kg): 47.34%
CCCNC(=O)c1cc(Oc2ccc(NC(=O)Nc3ccc(Cl)c(OC)c3)c(F)c2)c2ccc(C(F)(F)F)cc2n1 [Compound 37]	81.5		79.25	71.74	19.65	71.72	38.3	36.3	32.3		24.1				71.65	39.5	
CCCNC(=O)c1cc(Oc2ccc(NC(=O)Nc3ccc(Cl)c(OC)c3)c(C(F)(F)F)c2)c2ccc(C(F)(F)F)cc2n1 [Compound 38]	88.1		80.53	75.53	14.56	65.55	36.5	31.5	20.5		59.2				74.56	41.2	
CNC(=O)c1cc(Oc2ccc(NC(=O)Nc3ccc(Cl)c(C(F)(F)F)c3)cc2)ccn1 [Sorafenib, reference compound]	85.7		62.32	72.66	22.61	55.60				0.71 ± 0.30		2.36 ± 0.57	133 ± 33	308 ± 86	54.60		Mortality of the animals [7]: no mortality; Mortality of the animals [8]: no mortality; Mortality of the animals [9]: no mortality; Tumor growth inhibition rate (%) ([11]; 60 mg/kg): 55.9%; Tumor growth inhibition rate (%) ([11]; listed as Sora, 60 mg/kg): 55.9%; Weight (g) d0 [12]: 19.9 ± 1.1 g; Weight (g) d13 [12]: 20.4 ± 1.4 g
N-(4-chloro-3-(trifluoromethyl)phenyl)-N′-(4-(2-(N-methylaminoformoxyl)-4-(6-methoxyquinolinyl)oxy))phenyl)urea [Compound 1]	75.0	50.20	80.21	60.22	9.20	72.22	38.7	33.7	30.5	0.99 ± 0.20	38.5	2.81 ± 1.05	128 ± 34	359 ± 108			Weight (g) Start ([11]; mouse body weight at start, 60 mg/kg ig): 18.7 ± 1.9 g; Weight (g) Final ([11]; mouse body weight final, 60 mg/kg ig for 9 days): 22.3 ± 1.3 g; Relative tumor reproduction rate T/C (%) ([12]; 60 mg/kg): 55.42%; Weight (g) d0 [12]: 19.5 ± 1.0 g; Weight (g) d13 [12]: 20.5 ± 1.1 g
N-(4-chloro-3-(trifluoromethyl)phenyl)-N′-(4-(2-(N-methylaminoformoxyl)-4-(7 fluoroquinazolinyl)oxy)phenyl)urea [Compound 4]	82.2	91.12	96.38	89.71	5.12	86.77	12.3	15.3	9.6		50.1					33.15	
N-(4-chloro-3-(trifluoromethyl)phenyl)-N′-(4-(2-(N-methylaminoformoxyl)-4-(7-amino-isoquinolyl)oxy)phenyl)urea [Compound 10]	3.5	74.50	61.43	64.57	14.50	50.34	30.1	28.1	27.1		55.2					78.9	
N-(4-fluoro-3-(trifluoromethyl)phenyl)-N′-(4-(4-(2-methyl-pyrryl)oxy)phenyl)urea [Compound 29]	85.3		61.44	91.40	21.40	86.43	14.7	16.2	12.8		14.2				86.42	78.3	

Source: patent publication US8957087B2, “Heterocyclic substituted acardite derivate and application thereof” (Jiangsu Provincial Institute of Materia Medica Co., Ltd., priority 2009, dated 2015)
